Assay results reported in patent US7723576B2, “Method of selectively producing male or female sterile plants” (Syngenta Limited, priority 2003, dated 2010).

Columns and labels:
[1] = system: conditionally female sterile tobacco plants; test: Foliar spray on conditionally female sterile transgenic tobacco (stig1-deacetylase plus plastocyanin-PAT); assay type: in vivo, Nicotiana tabacum var. Samsun
Description: Tobacco leaf discs are transformed with the recombinant binary vectors using methods similar to those described in Horsch et al (1985) Science, 227, 1229-1231. Many variations of the method may be used. The binary vector can be transformed into, for example, Agrobacterium tumefaciens strain LBA 4404 using the freeze thaw method of transformation. Tobacco transformation and whole plant regeneration is performed using Nicotiana tabacum var. Samsun according to protocols described by Draper et al (Plant Genetic Transformation, Blackwell Sci. Pub. 1989). Transformation events are selected on MS-media containing kanamycin or other suitable antibiotic. Alternatively selection is made on phosphinothricin. The presence of integrated transgenes is confirmed by PCR. Plants are regenerated and allowed to reach maturity and selfed on to produce seed. Northern and/or Western analysis is used to confirm tissue-specific expression of the deacetylase. The plants are self-fertile but have the condition of conditional female sterility. Seeds of the T1 generation are planted out. Once plantlets have grown to a sufficient size they are tested by PCR for the presence of transgene. PCR positive plants are transferred to the greenhouse. These plants are fully fertile in the absence of exogenously applied phosphinothricin. A subset of these (putatively) conditionally sterile plants are treated with DL-phosphiothricin or L phosphinothricin in various amounts and at varying growth stages. Such treatments are carried out on the T1 plants confirmed as PCR positive for the deacetylase gene, or, equally, such treatments are carried out directly on plants of the To generation (which are vegetatively cloned so that untreated clones of each event may be set aside for seed production). […] For example, phosphinotricin is applied as a foliar spray, prior to or during the early stages of flower formation, at rates usually between 0.25 and 20 kg/ha. Undamaged appearing plants are selected and pollen from the treated plants is collected and viability is tested. […]

[2] = system: conditionally male sterile tobacco plants; test: Foliar spray on conditionally male sterile transgenic tobacco (TA29-deacetylase plus plastocyanin-PAT); assay type: in vivo
Description: Tobacco plant material is transformed, via Agrobacterium, with vector and transgenic plants are regenerated in a similar manner to that described in the previous example. The plants produced are self-fertile but are conditionally male sterile. Seeds of the T1 generation are planted out into soil. Once plantlets have grown to a sufficient size they are tested by PCR for the presence of transgene. PCR positive plants are transferred to the greenhouse. These plants are fully fertile in the absence of exogenously applied herbicide. A subset of these putatively conditionally sterile T1 plants, or, alternatively plantlets of T0 ‘events’ (direct regenerants from transformation) are treated with phosphinothricin in various amounts and at varying growth stages. Where To plants are treated they are vegetatively cloned so that untreated siblings of the events are set aside for seed production. […] For example, phosphinothricin is applied as a foliar spray, prior to or during the early stages of flower formation, at rates usually between 0.25 and 20 kg/ha.
Pollen from the treated plants is collected and viability is tested. […] Pollen collected from some of the treated plants is tested and found to be malformed and non-viable. […]

[3] = system: transgenic plants comprising a PAT gene under operable control of the plastocyanin promoter region; test: Foliar spray on control transgenic tobacco with PAT gene under plastocyanin promoter, no deacetylase gene; assay type: in vivo, Nicotiana tabacum var. Samsun; conditions: rates in excess of 2 kg/ha; no deacetylase co-expressed
[4] = system: wheat plants with PAT gene under plastocyanin promoter region; test: Application to wheat plants expressing PAT under a plastocyanin promoter region; assay type: in vivo; conditions: rates of at least 2 kg/ha
Excerpt: Firstly, the PAT gene is expressed under operable control of a plastocyanin promoter region so that it is expressed substantially only in the green tissues of the plant. […] Thus a critical feature of the constructs described in the foregoing examples which are used to provide the plants of the current example is that the PAT gene which provides the resistance trait is expressed under operable control of a promoter region which provides for expression in substantially only the green tissues. A characteristic of such a useful promoter region is that it should express PAT in such a way that it protects adequately all the […] floral tissues from foliarly applied DL phosphinothricin whilst, at the same time, providing only a minimal level of PAT expression in the floral tissue itself and especially low in those parts targeted for conditional sterility. With PAT expressed under operable control of the barley plastocyanin promoter region this condition appears to be met since substantially all of the L-phosphinothricin which is sprayed enters via the leaves is intercepted and converted to non-phytotoxic N-acetyl-L-phosphinothricin before it translocated to developing floral tissues. […]

CP(=O)(O)CC[C@H](N)C(=O)O (racemic) [phosphinothricin]
seed production after treatment ([1]; foliar spray prior to or during early flower formation, selected lines): relatively little or no seed
vegetative damage (appearance of treated plants) ([1]; foliar spray prior to or during early flower formation, treatment rates of up to 5 kg/ha): relatively undamaged
viable pollen production after treatment ([1]; same treatment conditions as for seed production): near normal levels of viable pollen
pollen shed and viability after treatment ([2]; foliar spray prior to or during early flower formation, rates usually between 0.25 and 20 kg/ha): no or relatively little pollen and/or pollen which is not viable
female fertility of treated male infertile plants ([2]; pollinated with pollen from untreated non-transgenic or conditionally female-sterile tobacco): remain female fertile

CP(=O)(O)CCC(N)C(=O)O (stereo not drawn) [DL PPT, DL phosphinothricin]
reproductive tolerance to the herbicide [3]: substantially complete reproductive tolerance
reproductive tolerance to the herbicide [4]: substantially reproductively tolerant
